Values after ≈ are worked out from the molar mass of the structure shown. Values joined by “and” are separate entries in the source; they are usually repeats but may differ in a detail not shown here. Identical values can stand only once. Like-named read-outs stand apart in the source and are kept apart here. Values belong to the compound of their own block, whether it stands above or below them.
Experiments:
Format in all cases: physicochemical
[1] = Desolvation / dehydration on heating, form checked by XRPD
Method: A weight loss of 33.1% is observed, prior to decomposition, which coincides with an onset in the DTA profile at ca. 108.8° C. (onset of the endotherm). The second endothermic event corresponds with decomposition at ca. 186.3° C. (onset of the endotherm). The 33.1% of loss of weight corresponds to 1.96 molecules of DMSO for 1 molecule of sialic acid. It is thus very likely that Form 4 is a stoichiometric bis-solvate (2:1). The ^1H NMR spectrum is consistent with sialic acid. The only noticeable difference between the spectra of Form 1 and Form 4 is the relative size of the resonance at ca. 2.5 ppm. This is due to DMSO, which further supports that Form 4 is a DMSO solvate.
Referring to PLM images (FIG. 20), the habit of Form 5 is block-like with a length around 100 μm. Strong birefringence is observed. […] Further weight losses are present, which may be due to decomposition. The loss of weight of 10.5% correlates very well with the KF Titration (10.34%). It is very likely Form 5 is a dihydrate (expected loss of weight for a dihydrate is 10.44%). […] This possibly indicates the formation of a new anhydrous form by desolvation of Form 5 (onset seen for Form 1 is ca. 188.9° C.). The difference between the TG/DTA and the DSC traces is likely to be due to the difference in pan (open pan for TG/DTA and pierced closed pan for DSC). […]

[2] = PLM (morphology) of the solid forms; settings: for PLM (morphology): particle shape
[3] = Thermogravimetric/Differential Thermal Analysis (TG/DTA)
Method: Approximately, 10 mg of material was weighed into an open aluminium pan and loaded into a simultaneous thermogravimetric/differential thermal analyser (TG/DTA) and held at room temperature. The sample was then heated at a rate of 10° C./min from 25° C. to 300° C. during which time the change in sample weight was recorded along with any differential thermal events (DTA). Nitrogen was used as the purge gas, at a flow rate of 300 cm^3/min.

[4] = Approximate aqueous solubility of the solid forms (solvent addition method); settings: for Aqueous Solubility, Solubility in g/L / solubility: deionized water; for solubility: water, thermodynamic from solid
Method: (§1) The selected Forms (5, 3 and 2) were fully characterized by PLM, XRPD, ^1H NMR and IR spectroscopy, DSC, TG/DTA, GVS (with post-GVS XRPD), Karl Fischer titration for water content and HPLC analysis for purity. All of these forms with the addition of Form 1 were also placed under a stress-stability test, at three different conditions for one week (ambient conditions, 40° C. and 75% relative humidity, 80° C.). In addition to this, an approximate solubility test was conducted on the different solid forms using a solvent addition method.
Approximately 50 mg of each form (1, 2, 3 and 5) was weighed into a 2 ml vial. 20 μl aliquots of deionized water was added to each vial until complete dissolution of the solid was observed. The volume was noted down and the approximate water solubility calculated.

HPLC-UV chemical purity = settings: for HPLC (purity): summary Table 13
Method: The chemical purity was measured on an Agilent HP1100 HPLC system fitted with an Agilent variable wavelength UV detector. Samples were prepared by dissolving in diluent at a concentration of 1 mg/mL before being analysed under the following HPLC conditions: […]

[5] = Gravimetric Vapour Sorption (GVS) with post-GVS XRPD; settings: for GVS mass difference: between 0-90% relative humidity; for Polymorphic form after GVS (XRPD): material reclaimed after GVS run
Method: Approximately 10-20 mg of sample was placed into a mesh vapour sorption balance pan and loaded into an IGASorp Moisture Sorption Analyser balance by Hiden Analytical. The sample was subjected to a ramping profile from 40-90% relative humidity (RH) at 10% increments, maintaining the sample at each step until a stable weight had been achieved (98% step completion). After completion of the sorption cycle, the sample was dried using the same procedure to 0% RH, and finally taken back to the starting point of 40% RH. The weight change during the sorption/desorption cycles were plotted, allowing for the hygroscopic nature of the sample to be determined.

[6] = 7 day stress stability, chemical stability by HPLC; settings: for Sialic acid Area % (HPLC): two injections; for Chemical stability: 1 week stress test, conditions studied; for HPLC purity of recovered samples: all three conditions (ambient; 40° C./75% RH; 80° C.)
Method: The chemical purity was measured on an Agilent HP1100 HPLC system fitted with an Agilent variable wavelength UV detector. Samples were prepared by dissolving in diluent at a concentration of 1 mg/mL before being analysed under the following HPLC conditions:
as §1
(§2) All four Forms (1, 2, 3 and 5) were placed under 7 day stress stability testing. This was carried out by placing the four forms under three different conditions for one week. Their physical stability was then analyzed by comparing the diffractograms and the chemical stability was checked by HPLC.

[7] = 7 day stress stability, physical form by XRPD; settings: for Stability as a physical form (XRPD): 1 week stress test, overall
Method: XRPD analysis was carried out on a Panalytical X′pert Pro, scanning the samples between 3 and 35° […]. The material was gently ground and loaded onto a multi well plate with Kapton or mylar polymer film to support the sample. The multi well plate was then loaded into a Panalytical diffractometer running in transmission mode and analysed, using the following experimental conditions.
as §1, §2

[8] = Differential Scanning Calorimetry (DSC)
Method: Approximately, 5 mg of material was weighed into an aluminium DSC pan and sealed non-hermetically with a pierced aluminium lid. The sample pan was then loaded into a Seiko DSC6200 (equipped with a cooler) cooled and held at 25° C. Once a stable heat-flow response was obtained, the sample and reference were heated to 210° C. at a scan rate of 10° C./min and the resulting heat flow response monitored. Nitrogen was used as the purge gas, at a flow rate of 50 cm^3/min.

[9] = Slurries of Form 1 at 5° C. followed by XRPD over time
Method: Due to the discolouration of samples during slurry experiments in water and water/acetic acid mixtures, slurries of sialic acid (Form 1) were made at 5° C. in water, water/acetic acid (80/20 v/v) mixture, ethyl acetate and acetic acid and stirred for […]. Diffractograms of the slurried solids were recorded after 10 minutes, 4 hours, 20 hours and 28 hours. Form 5 was obtained in slurries containing water at all time points. Form 1 was obtained for acetic acid and ethyl acetate for all time points.

[10] = Competitive slurry experiments (polymorph stability)
Method: Competitive slurry experiments were conducted between Forms 1 and 3 and between Forms 1 and 2. A mixture of the two forms (25 mg per form) being investigated was slurried in 1 mL of solvent for one day at 20° C. or 60° C. in five different solvents (acetone, acetic acid, ethanol, ethyl acetate and ethynol).
Competitive slurries were performed to compare the relative stability between two forms at a given temperature in a given solvent.

[11] = after 1 week under 40° C., 75% RH
[12] = 1 week under ambient conditions
[13] = acetone, ethanol, ethyl acetate, ethynol, 20° C. or 60° C.
[14] = after 1 week under ambient conditions

Form after desolvation (XRPD) ([1]; 15 min at 100° C. under vacuum): converted to Form 1
Structure (SMILES): CC(=O)N[C@H]1[C@H]([C@H](O)[C@H](O)CO)OC(O)(C(=O)O)C[C@@H]1O (stereo partly drawn) [Form 4, N-acetylneuraminic acid]

Form after dehydration (XRPD) ([1]; held at 90° C. for 35 min in TG/DTA apparatus): unknown form | PLM (morphology), particle size [2]: < 100 μm | PLM (morphology) [2]: Blocks | TGA (weight loss) [3]: 10.5% | TGA temperature of the weight loss [3]: (88.4° C.) | Approximate solubility ([4]; aqueous): 96.6 mg/mL | Aqueous Solubility, Solubility in g/L ([4]; approximate, solvent addition): 96.6 g/L | Area % Sodium Pyruvate (HPLC) (HPLC-UV chemical purity; no stress condition stated): 0.000% | HPLC (purity) (HPLC-UV chemical purity): 99.80% and 99.90% | Hygroscopicity (GVS) [5]: very slightly hygroscopic | Stability when exposed to different humidity levels [5]: stable | XRPD post DVS [5]: no change | GVS mass difference [5]: 1.45% | Polymorphic form after GVS (XRPD) [5]: same polymorphic form (Form 5) | HPLC (purity) ([6]; after 1 week at 80° C.): 96.8% | Sialic acid Area % (HPLC) [6, 11]: 99.899% and 99.919% | Sodium Pyruvate Area % (HPLC) ([6]; after 1 week under 80° C.): 0.559% | HPLC (purity) ([6]; after 1 week, both ambient and 40° C./75% RH samples): higher than 99.9% | Area % Acetic acid (HPLC) ([6]; stability under 80° C.): 0.000% | Area % N-acetyl-D-glucosamine (HPLC) ([6]; stability under 80° C.): 0.000% | Area % N-acetyl-D-mannosamine (HPLC) ([6]; stability under 80° C.): 0.000% | Physical form (XRPD) after stress ([7]; 1 week at 40° C./75% RH): stable | Physical form (XRPD) after stress ([7]; 1 week at 80° C.): converts to an unknown form | Physical form (XRPD) after stress [7, 12]: stable | Stability - XRPD post Stability ([7]; at 80° C.): New form 80 °C | Stability - XRPD post Stability ([7]; at RT): Form 5 at RT
Structure (SMILES): CC(=O)N[C@H]1[C@H]([C@H](O)[C@H](O)CO)OC(O)(C(=O)O)C[C@@H]1O (stereo partly drawn) [Form 5, N-acetylneuraminic acid]

PLM (morphology), particle size [2]: <10 μm | PLM (morphology) [2]: Small needles | TGA Decomposition temperature [3]: at 190.2 °C | solubility ([4]; aqueous, read-out: Approximate solubility): 98.5 g/L (≈ 318 mM) | solubility ([4]; approximate, solvent addition, read-out: Aqueous Solubility, Solubility in g/L): 98.5 g/L (≈ 318 mM) | HPLC (purity) (HPLC-UV chemical purity): 99.5% | Hygroscopicity (GVS) [5]: very slightly hygroscopic | Stability when exposed to different humidity levels [5]: stable | XRPD post DVS [5]: no change | GVS mass difference [5]: 1.4% | Polymorphic form after GVS (XRPD) [5]: same polymorphic form (Form 1) | DSC (thermal events) Endotherm [8]: 188.6° ° C. | Form obtained from slurry (XRPD) ([9]; acetic acid, all time points): Form 1 | Form obtained from slurry (XRPD) ([9]; ethyl acetate, all time points): Form 1 | Time to full conversion to Form 5 in slurry ([9]; water and water/acetic acid (80:20 v/v)): ≤ 10 min | Form obtained from slurry (XRPD) ([9]; water, all time points (10 minutes to 28 hours)): Form 5 | Form obtained from slurry (XRPD) ([9]; water/acetic acid (80/20 v/v), all time points): Form 5 | Form recovered from competitive slurry between Forms 1 and 2 ([10]; acetic acid): mixture of Forms 1 and 3 | Form recovered from competitive slurry between Forms 1 and 3 ([10]; acetic acid): mixture of Form 1 and 3 | Form recovered from competitive slurry between Forms 1 and 2 [10, 13]: Form 1 is recovered | Form recovered from competitive slurry between Forms 1 and 3 [10, 13]: Form 1 is recovered | Relative stability, competitive slurries between Forms 1 and 2 ([10]; all studied conditions): more stable than Form 2 | Relative stability, competitive slurries between Forms 1 and 3 ([10]; all studied conditions except in acetic acid): more stable than Form 3 | Overall relative stability of the form ([10]; competitive slurries, most of the studied conditions): thermodynamically most stable form | Chemical stability [6]: stable | N-acetyl-D-glucosamine Area % (HPLC) [6, 11]: 0.079% and 0.081% | Sialic acid Area % (HPLC) [6, 11]: 99.580% and 99.590% | N-acetyl-D-glucosamine Area % (HPLC) ([6]; after 1 week under 80° C.): 0.062% | N-acetyl-D-glucosamide known impurity [6, 14]: 0.076% | Sialic acid Area % (HPLC) [6, 14]: 99.705% and 99.711% | HPLC purity of recovered samples ([6]; after 1 week): higher than 99.5% | Stability as a physical form (XRPD) [7]: stable | Stability - XRPD post Stability ([7]; no single condition stated): no change
Structure (SMILES): CC(=O)N[C@H]1[C@H]([C@H](O)[C@H](O)CO)OC(O)(C(=O)O)C[C@@H]1O (stereo partly drawn) [Form 1, N-acetylneuraminic acid]

PLM (morphology), particle size [2]: <30 μm | PLM (morphology) [2]: Small needles | TGA (weight loss) [3]: 15.3% | TGA Decomposition temperature [3]: 176.2° ° C. | TGA temperature of the weight loss [3]: (80° C.) | Approximate solubility ([4]; aqueous): 188.2 mg/mL | Aqueous Solubility, Solubility in g/L ([4]; approximate, solvent addition): 188.2 g/L | HPLC (purity) (HPLC-UV chemical purity): 99.8% | DVS (hygroscopicity) [5]: Goes to form 1 | XRPD post DVS [5]: change | Polymorphic form after GVS (XRPD) [5]: converts to Form 1 | GVS weight loss (desolvation) ([5]; on increase of humidity): 16% | DVS, RH at which the form goes to form 1 ([5]; relative humidity): RH >50% | DSC (thermal events) Endotherm [8]: 107° ° C. and 181.0° ° C. | Chemical stability [6]: moderate chemical stability | Sialic acid Area % (HPLC) [6, 11]: 98.011% and 98.031% | Sialic acid Area % (HPLC) ([6]; after 1 week under 80° C.): 99.526% and 99.523% | Sialic acid Area % (HPLC) [6, 14]: 99.684% and 99.715% | HPLC purity of recovered samples ([6]; after 1 week): higher than 98% | Physical form (XRPD) after stress ([7]; 1 week at 80° C.): to Form 2 | Stability as a physical form (XRPD) [7]: not stable | Physical form (XRPD) after stress [7, 12]: converts to Form 2 | Stability - XRPD post Stability ([7]; at 80° C.): Form 2 at 80 °C | Stability - XRPD post Stability ([7]; at RT): Form 2 at RT
Structure (SMILES): CC(=O)N[C@H]1[C@H]([C@H](O)[C@H](O)CO)OC(O)(C(=O)O)C[C@@H]1O (stereo partly drawn) [Form 3, N-acetylneuraminic acid]
